Experimental data taken from US9163042B2, “Prodrugs of pyridone amides useful as modulators of sodium channels” (VERTEX PHARMACEUTICALS INCORPORATED, priority 2013, dated 2015).
Like-named read-outs stand apart in the source and are kept apart here.

Key:
human Nav1.8 = human Nav1.8 (Homo sapiens (Human), UniProt Q9Y5Y9); assay: E-VIPR optical membrane potential assay with electrical stimulation (NaV1.8 IC50 activity); type: cell-based
Description: Sodium channels are voltage-dependent proteins that can be activated by inducing membrane voltage changes by applying electric fields. The electrical stimulation instrument and methods of use are described in Ion Channel Assay Methods PCT/US01/21652, herein incorporated by reference and are referred to as E-VIPR. The instrument comprises a microtiter plate handler, an optical system for exciting the coumarin dye while simultaneously recording the coumarin and oxonol emissions, a waveform generator, a current- or voltage-controlled amplifier, and a device for inserting electrodes in well. Under integrated computer control, this instrument passes user-programmed electrical stimulus protocols to cells within the wells of the microtiter plate.
24 hours before the assay on E-VIPR, HEK cells expressing human Nav1.8 were seeded in 384-well poly-lysine coated plates at 15,000-20,000 cells per well. […] Cells were grown in vented cap flasks, in 90% humidity and 5% CO2.
1) Pre-spotted compounds (in neat DMSO) into compound plates. […] Final compound plate volume was 80 μL (80-fold intermediate dilution from 1 μL DMSO spot; 160-fold final dilution after transfer to cell plate).
2) Prepared Hexyl Dye Solution.
3) Prepared cell plates. On the day of the assay, medium was aspirated and cells were washed three times with 100 μL of Bath1 Solution, maintaining 25 μL residual volume in each well.
4) Dispensed 25 μL per well of Hexyl Dye Solution into cell plates. Incubated for 20-35 minutes at room temp or ambient conditions.
5) Dispensed 80 μL per well of Bath1 into compound plates. Acid Yellow-17 (1 mM) was added and Potassium Chloride was altered from 4.5 to 20 mM depending on the NaV subtype and assay sensitivity.
6) Washed cell plates three times with 100 μL per well of Bath1, leaving 25 μL of residual volume. […] Incubated for 20-35 minutes at room temp/ambient condition.
7) Read Plate on E-VIPR. […] A pre-stimulus recording was performed for 0.5 seconds to obtain the un-stimulated intensities baseline. The stimulatory waveform was followed by 0.5 seconds of post-stimulation recording to examine the relaxation to the resting state.
Data was analyzed and reported as normalized ratios of emission intensities measured in the 460 nm and 580 nm channels. The response as a function of time was reported as the ratios obtained using the following formula: […]
The data was further reduced by calculating the initial (Ri) and final (Rf) ratios. These were the average ratio values during part or all of the pre-stimulation period, and during sample points during the stimulation period. The response to the stimulus R=Rf/Ri was then calculated and reported as a function of time.
Control responses were obtained by performing assays in the presence of a compound with the desired properties (positive control), such as tetracaine, and in the absence of pharmacological agents (negative control). Responses to the negative (N) and positive (P) controls were calculated as above.

[1] = Rat IV pharmacokinetic study; type: in vivo, Sprague Dawley rats; settings: rat, single IV bolus 1 mg/kg of compound 9; LLOQ 2.5 ng/mL
Protocol: (§1) Sample Analysis. […] Before extraction, plasma samples were diluted using blank plasma at an appropriate dilution factor, as necessary, depending on the dose level. […] After centrifugation, the supernatant extract (10 μL) was injected onto the LC/MS/MS system. The HPLC system included a Phenomenex Synergy Kinetix C8 column, 2.6 micron, 2.0 mm diameter×75 mm long eluted with a gradient mobile phase consisting of 0.1% formic acid in water or in acetonitrile.
(§2) The analytes were detected by MS/MS with Electrospray Ionization (ESI) in the mode of multiple reaction monitoring (MRM). […] The intra-day and inter-day assay accuracy was within 20% of the nominal values. The intra- and inter-day assay variability was ≦20%.
(§3) Pharmacokinetic Data Analysis.
(§4) Key pharmacokinetic parameters such as AUCall, AUCextra, Cmax, tmax, Cl, Vss and t1/2 were determined.
(§5) Statistical Data Analysis. Descriptive statistical data of pharmacokinetic parameters were calculated, including the mean, standard deviation (SD), using Watson LIMS version 7.4 SP3 or Microsoft Excel 2000.
Male Sprague Dawley rats (n=3) were administered a single nominal IV bolus dose of 1 mg/kg of compound 9 via a jugular vein cannula. […] Animals had free access to food and water before and after dosing. Blood samples (approximately 0.25 mL each) were collected via a carotid artery catheter prior to dosing and at 5 min, 10 min, 0.25, 0.5, 1, 2, 4, 8, 12, 24 hours post dose. Each blood sample was collected into a tube that was kept on wet ice and contained potassium EDTA as the anticoagulant. Plasma was separated and stored at approximately −70° C. until analysis.
Plasma concentration vs. time data were subjected to noncompartmental pharmacokinetic (PK) analysis.

[2] = Rat oral pharmacokinetic study; type: in vivo, Sprague Dawley rats
Protocol: as §1, §2, §3, §4, §5
Groups of male and female Sprague Dawley rats (n=3 per dose group) were administered single nominal oral doses of 10, 100, 400, 640, 1000 mg/kg (for males) and 30, 100, 300, 640, 1000 mg/kg (for females) of compound 9 by gavage. Compound 9 was formulated in either 30% PEG400 and 10% TPGS in water or 5% TPGS, 5% PVP-K30 in 50 mM Citrate, pH 5. Animals had free access to food and water before and after dosing. Blood samples (approximately 0.25 mL each) were collected via a carotid artery catheter prior to dosing and at 0.25, 0.5, 1, 2, 4, 8, 12, 24, 48 and 72 hours post dose. Each blood sample was collected into a tube that was kept on wet ice and contained potassium EDTA as the anticoagulant. Plasma was separated and stored at approximately −70° C. until analysis.

[3] = Monkey oral pharmacokinetic study; type: in vivo, cynomolgus monkeys
Protocol: as §1, §2, §3, §4, §5
Male or female cynomolgus monkeys (n=3 per dose group) were administered single nominal PO doses of 10, 40, 100, 300, 500, 750 and 1000 mg/kg of compound 9 by gavage. Compound 9 was formulated in 30% PEG400 and 10% TPGS in water or 5% TPGS, 5% PVP-K30 in 50 mM Citrate, pH 5. […]

Aqueous solubility study = type: physicochemical; settings: thermodynamic from solid
Protocol: The aqueous solubility of compound 9 and 9a were determined according to the following procedure. Solubility data was determined at ambient conditions by equilibrating the compound with water on a shaking bed for 24 hours, followed by centrifugation and separation of the saturated solutions. The pH value of each media was measured before centrifugation, and the saturated solutions were assayed by HPLC.

Chain of human Nav1.8 (Q9Y5Y9 whole entry): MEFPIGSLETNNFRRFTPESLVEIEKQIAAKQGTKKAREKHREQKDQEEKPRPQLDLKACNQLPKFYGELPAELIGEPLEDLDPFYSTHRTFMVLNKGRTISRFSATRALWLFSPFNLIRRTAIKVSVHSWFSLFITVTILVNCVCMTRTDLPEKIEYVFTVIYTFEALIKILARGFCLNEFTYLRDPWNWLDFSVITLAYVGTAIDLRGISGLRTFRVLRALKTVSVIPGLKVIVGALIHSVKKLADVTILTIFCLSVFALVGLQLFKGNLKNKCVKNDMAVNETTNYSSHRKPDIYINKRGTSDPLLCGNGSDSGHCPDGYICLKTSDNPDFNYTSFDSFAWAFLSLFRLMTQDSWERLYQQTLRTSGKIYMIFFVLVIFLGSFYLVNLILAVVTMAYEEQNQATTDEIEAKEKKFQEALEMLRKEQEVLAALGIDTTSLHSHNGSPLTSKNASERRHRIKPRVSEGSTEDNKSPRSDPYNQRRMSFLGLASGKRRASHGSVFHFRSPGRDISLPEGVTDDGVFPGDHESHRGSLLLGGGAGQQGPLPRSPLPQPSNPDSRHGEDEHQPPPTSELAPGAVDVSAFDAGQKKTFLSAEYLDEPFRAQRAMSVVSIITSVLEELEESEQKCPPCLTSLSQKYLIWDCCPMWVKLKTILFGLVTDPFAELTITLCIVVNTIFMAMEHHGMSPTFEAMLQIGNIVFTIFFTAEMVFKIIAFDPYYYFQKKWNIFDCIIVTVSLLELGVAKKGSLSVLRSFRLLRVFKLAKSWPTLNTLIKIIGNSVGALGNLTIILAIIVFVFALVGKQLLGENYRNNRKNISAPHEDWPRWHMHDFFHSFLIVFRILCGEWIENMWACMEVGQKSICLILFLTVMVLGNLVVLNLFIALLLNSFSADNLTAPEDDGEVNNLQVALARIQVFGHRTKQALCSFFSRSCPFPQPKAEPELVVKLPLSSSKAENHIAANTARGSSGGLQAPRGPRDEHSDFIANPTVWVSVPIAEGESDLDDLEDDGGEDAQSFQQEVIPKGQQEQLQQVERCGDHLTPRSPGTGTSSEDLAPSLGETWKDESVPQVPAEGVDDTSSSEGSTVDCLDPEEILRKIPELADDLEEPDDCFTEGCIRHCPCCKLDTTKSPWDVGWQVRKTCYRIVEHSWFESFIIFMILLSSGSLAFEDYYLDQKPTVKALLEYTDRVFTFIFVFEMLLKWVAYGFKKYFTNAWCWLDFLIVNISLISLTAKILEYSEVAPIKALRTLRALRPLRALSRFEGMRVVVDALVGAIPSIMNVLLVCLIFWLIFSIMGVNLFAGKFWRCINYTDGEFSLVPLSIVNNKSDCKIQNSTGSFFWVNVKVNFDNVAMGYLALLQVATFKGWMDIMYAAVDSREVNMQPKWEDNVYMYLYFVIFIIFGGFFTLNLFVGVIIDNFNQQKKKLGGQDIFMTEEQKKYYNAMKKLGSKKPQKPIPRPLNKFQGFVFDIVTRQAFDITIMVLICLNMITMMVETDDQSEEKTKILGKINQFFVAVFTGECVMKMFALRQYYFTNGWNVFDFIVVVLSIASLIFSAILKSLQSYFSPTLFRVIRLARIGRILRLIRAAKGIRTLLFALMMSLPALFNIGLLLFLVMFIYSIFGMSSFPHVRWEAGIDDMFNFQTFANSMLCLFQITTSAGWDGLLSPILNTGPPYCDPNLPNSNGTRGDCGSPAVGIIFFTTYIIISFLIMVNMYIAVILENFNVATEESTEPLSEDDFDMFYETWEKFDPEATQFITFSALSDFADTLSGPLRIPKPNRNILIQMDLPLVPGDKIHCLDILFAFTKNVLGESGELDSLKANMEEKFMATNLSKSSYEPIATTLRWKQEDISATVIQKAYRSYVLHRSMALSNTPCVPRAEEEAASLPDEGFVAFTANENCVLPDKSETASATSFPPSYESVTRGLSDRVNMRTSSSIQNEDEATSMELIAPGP

IC50 (human Nav1.8): 330 nM
in vivo conversion of prodrug into parent compound ([2]; rats): converted in vivo into compound 9a
in vivo conversion of prodrug into parent compound ([3]; monkeys): converted in vivo into compound 9a
solubility at 24 h (Aqueous solubility study; aqueous medium, aqueous buffer, pH 3, crystalline, ambient conditions, 24 hours, read-out: Solubility): 110 µg/mL
solubility at 24 h (Aqueous solubility study; aqueous medium, aqueous buffer, pH 3.3, crystalline, ambient conditions, 24 hours, read-out: Solubility): 240 µg/mL
solubility at 24 h (Aqueous solubility study; aqueous medium, aqueous buffer, pH 5, crystalline, ambient conditions, 24 hours, read-out: Solubility): 420 µg/mL
solubility at 24 h (Aqueous solubility study; aqueous medium, aqueous buffer, pH 7, crystalline, ambient conditions, 24 hours, read-out: Solubility): 500 µg/mL
solubility at 24 h (Aqueous solubility study; aqueous medium, aqueous buffer, pH 8, crystalline, ambient conditions, 24 hours, read-out: Solubility): 2240 µg/mL
solubility at 24 h (Aqueous solubility study; aqueous medium, simulated gastric fluid, pH 1, crystalline, ambient conditions, 24 hours, read-out: Solubility): 2 µg/mL
solubility at 24 h (Aqueous solubility study; water, read-out: aqueous solubility in water): ~300 µg/mL
SMILES: Cc1cc(F)ccc1Oc1cc(C(F)(F)F)ccc1C(=O)Nc1ccn(COP(=O)(O)O)c(=O)c1 [Compound 9, (4-(2-(4-fluoro-2-methylphenoxy)-4-(trifluoromethyl)benzamido)-2-oxopyridin-1(2H)-yl)methyl dihydrogen phosphate]
plasma concentrations of compound 9 [1]: below LLOQ for the majority of the samples
plasma concentrations of compound 9 ([2]; rat, single oral doses 10-1000 mg/kg of compound 9, LLOQ 2.5 to 25 ng/mL): below LLOQ for the majority of the samples
plasma concentrations of compound 9 ([3]; monkey, single PO doses 10-1000 mg/kg of compound 9, LLOQ 10.0 to 25.0 ng/mL): below LLOQ for the majority of the samples
